Assay: Effective concentration to activate gammadelta T cells
Assay type: functional, cell-based
Conditions: t-cell

| SMILES | EC50 [µM] |
| --- | --- |
| O=P(O)(O)OCC(O)CO (stereo not given) | 1580 |
| CCCOP(=O)(O)O [PROPYL PHOSPHATE] | 707 |
| CCC(C)OP(=O)(O)O (stereo not given) | 2240 |
| CC(O)(CI)CCOP(=O)(O)OP(=O)(O)OP(=O)(O)OCCC(C)(O)CI (stereo not given) | 8.66 |
| COP(=O)(O)O [PHOSPHORIC ACID MONOMETHYL ESTER] | 707 |
| NCCC(O)(P(=O)(O)O)P(=O)(O)O [PAMIDRONIC ACID] | 5.66 |
| CC(C)OP(=O)(O)O [PHOSPHORYLISOPROPANE] | 707 |
| CCCCCN(C)CCC(O)(P(=O)(O)O)P(=O)(O)O [IBANDRONIC ACID] | 1 |
| CC(O)(CBr)CCOP(=O)(O)OP(=O)(O)OP(=O)(O)OCC(C)(O)CBr (stereo not given) | 14.1 |
| CC(OP(=O)(O)O)C(=O)O (stereo not given) | 1580 |
| O=P(O)(O)O[C@@H]1OC[C@@H](O)[C@H](O)[C@H]1O | 1580 |
| CC(O)(CI)CCOP(=O)(O)OP(=O)(O)OP(=O)(O)O (stereo not given) [IODOHYDRIN TRIPHOSPHATE] | 0.224 |
| CC(=O)CCCOP(=O)(O)OP(=O)(O)O | 31.6 |
| CC(O)(CO)CCOP(=O)(O)OP(=O)(O)O (stereo not given) | 3.16 |
| O=C(O)C(COP(=O)(O)O)OP(=O)(O)O (stereo not given) | 1580 |
| C/C=C\COP(=O)(O)OP(=O)(O)O [CROTYL PYROPHOSPHATE] | 3.16 |
| CC(COP(=O)(O)OP(=O)(O)O)C(C)(O)CI (stereo not given) | 7.07 |
| CCC(=O)CCOP(=O)(O)OP(=O)(O)O | 31.6 |

| SMILES | EC50 [µM] |
| --- | --- |
| CC(O)(CBr)CCOP(=O)(O)OP(=O)(O)O (stereo not given) [BROMOHYDRIN PYROPHOSPHATE] | 0.01 |
| NCCCC(O)(P(=O)(O)O)P(=O)(O)O [ALENDRONIC ACID] | 0.9 |
| CC(C)=CCOP(=O)(O)O | 158 |
| CC(=O)C(C)COP(=O)(O)OP(=O)(O)O (stereo not given) | 31.6 |
| C=C(C)CCOP(=O)(O)O [ISOPENTENYL PHOSPHATE] | 158 |
| CC(O)(CCl)CCOP(=O)(O)OP(=O)(O)O (stereo not given) [CHLOROHYDRIN PYROPHOSPHATE] | 0.0707 |
| C/C=C\COP(=O)(O)O | 158 |
| CC(=O)CCOP(=O)(O)OP(=O)(O)O | 40 |
| C[C@@]1(CCOP(=O)(O)OP(=O)(O)O)CO1 | 0.4 |
| C=CCOP(=O)(O)O | 158 |
| CC(O)(CI)CCOP(=O)(O)OP(=O)(O)O (stereo not given) [IODOHYDRIN PYROPHOSPHATE] | 0.0012 |
| C=CCOP(=O)(O)OP(=O)(O)O [ALLYL PYROPHOSPHATE] | 3.16 |
| CCOP(=O)(OCC)OP(=O)(OCC)OCC [ETHYL PYROPHOSPHATE] | 3.16 |
| O=P(O)(O)OCCO | 224 |
| CCC(=O)COP(=O)(O)OP(=O)(O)O | 44.7 |
| CC(O)(CBr)CCOP(=O)(O)OP(=O)(O)OP(=O)(O)O (stereo not given) [BROMOHYDRIN TRIPHOSPHATE] | 0.346 |
| O=C(O)COP(=O)(O)O [PHOSPHOGLYCOLIC ACID] | 707 |
